The test system of this assay is vancomycin monoclonal antibody. Briefly: Cross-reaction rate measurement of the test strip of Embodiment 1 (interference testing in human serum containing 20 μg/mL vancomycin). Format: binding, Balb/c mouse. The procedure: 20 ul of sample is accurately pipetted into 180 ul of sample diluent and mixed fully.
80 uL of sample solution to be tested is accurately pipetted into a test strip loading well with a micropipette, and reaction is carried out at 20° C. for 15 min. The test strip is inserted into a load carrier of a fluorescence detector, an item to be tested is selected by touching a display screen, a “Detection Start” button is pressed, the fluorescence detector automatically scans the test strip, and a test result is read through the display screen of an instrument or printed.
After the test is completed, the instrument obtains the ratio of the time-resolved fluorescent intensity of the detection area on the test strip to the time-resolved fluorescent intensity of the quality control area, and calculates the content of vancomycin in the sample to be tested according to the following formula. Y=(A−D)/[1+(x/C)^B]+D
Several vancomycin analogs and common drugs are selected for interference testing.

The mark [1] stands for this setting: test concentration 1,000 μg/mL, added to human serum with vancomycin 20 μg/mL.

Molecules are shown by their SMILES.

Regarding `NC(=O)N1c2ccccc2C=Cc2ccccc21` [Carbamazepine], the Cross reaction rate under setting [1] is given as under 0.001%.
Still for that read-out and setting: as for `C[C@H]1O[C@@H](O[C@H]2[C@@H](O)C[C@H](O[C@H]3[C@@H](O)C[C@H](O[C@H]4CC[C@@]5(C)[C@H](CC[C@@H]6[C@@H]5C[C@@H](O)[C@]5(C)[C@@H](C7=CC(=O)OC7)CC[C@]65O)C4)O[C@@H]3C)O[C@@H]2C)C[C@H](O)[C@@H]1O` [Digoxin], the figure is under 0.001%; as for `O=C(O)c1ccccc1O` [Salicylic acid], under 0.001%; as for `Cn1c(=O)c2[nH]cnc2n(C)c1=O` [Theophylline], under 0.001%.
Consider `CN[C@H](CC(C)C)C(=O)N[C@H]1C(=O)N[C@@H](CC(N)=O)C(=O)N[C@H]2C(=O)N[C@H]3C(=O)N[C@H](C(=O)N[C@H](C(=O)O)c4cc(O)cc(O)c4-c4cc3ccc4O)[C@H](O)c3ccc(c(Cl)c3)Oc3cc2cc(c3O[C@@H]2OC(CO)[C@@H](O)[C@H](O)[C@H]2O[C@H]2C[C@](C)(N)[C@H](O)[C@H](C)O2)Oc2ccc(cc2Cl)[C@H]1O.Cl` (stereo partly drawn) [Vancomycin], for which the Cross reaction rate (test concentration 20 μg/mL, human serum sample) came out at 100%.
In the case of `CCCC(CCC)C(=O)O` [Valproic acid], under setting [1], the Cross reaction rate is reported as under 0.001%.
Regarding `O=C1NC(=O)C(c2ccccc2)(c2ccccc2)N1` [Phenytoin], the Cross reaction rate under setting [1] is under 0.001%.
Turning to `CC(C)C[C@@H](N)C(=O)N[C@H]1C(=O)N[C@@H](CC(N)=O)C(=O)N[C@H]2C(=O)N[C@H]3C(=O)N[C@H](C(=O)N[C@H](C(=O)O)c4cc(O)cc(O)c4-c4cc3ccc4O)[C@H](O)c3ccc(c(Cl)c3)Oc3cc2cc(c3O[C@@H]2O[C@H](CO)[C@@H](O)[C@H](O)[C@H]2O[C@H]2C[C@](C)(N)[C@H](O)[C@H](C)O2)Oc2ccc(cc2Cl)[C@H]1O` [Norvancomycin], where the note is “test concentration 100 μg/mL, added to human serum with vancomycin 20 μg/mL”, the Cross reaction rate was under 1%.
In the case of `CC(=O)Oc1ccccc1C(=O)O` [Aspirin], the Cross reaction rate under setting [1] is on record as under 0.001%.

The values are drawn from patent US11162959B2, “Time-resolved fluorescent immunochromatographic test strip for detecting vancomycin as well as preparation method and application thereof” (BEIJING DIAGREAT BIOTECHNOLOGIES CO., LTD., priority 2019, dated 2021).
